Laboratory results as given in the NIST ThermoML archive (doi:10.1021/acs.jced.9b00540).
± gives the expanded uncertainty stated by the source.

Assay: xn = mol fraction of the nth substance listed
Conditions: Liquid

CCOC(F)(C(F)(F)C(F)(F)C(F)(F)F)C(F)(C(F)(F)F)C(F)(F)F (stereo not given) [2-trifluoromethyl-3-ethoxydodecafluorohexane] + CC(C)OC(C)C
viscosity [mPa·s]
Conditions | x1 = 0.25 | x1 = 0.375 | x1 = 0.5 | x1 = 0.625 | x1 = 0.75 | x1 = 1
293.15 K, 100 kPa, Capillary tube (Ostwald / Ubbelohde) method | 0.483 ± 0.01 | 0.573 ± 0.012 | 0.685 ± 0.014 | 0.818 ± 0.017 | 0.985 ± 0.021 | 1.369 ± 0.029
293.15 K, 20000 kPa, Falling or rolling sphere viscometry | 0.602 ± 0.013 | 0.751 ± 0.017 | 0.939 ± 0.021 | 1.1 ± 0.024 | 1.315 ± 0.029 | 1.894 ± 0.043
293.15 K, 40000 kPa, Falling or rolling sphere viscometry | 0.732 ± 0.016 | 0.944 ± 0.021 | 1.198 ± 0.026 | 1.412 ± 0.031 | 1.727 ± 0.038 | 2.645 ± 0.059
293.15 K, 60000 kPa, Falling or rolling sphere viscometry | 0.883 ± 0.019 | 1.171 ± 0.026 | 1.49 ± 0.033 | 1.802 ± 0.04 | 2.255 ± 0.05 | 3.622 ± 0.081
293.15 K, 80000 kPa, Falling or rolling sphere viscometry | 1.058 ± 0.023 | 1.435 ± 0.031 | 1.82 ± 0.04 | 2.291 ± 0.05 | 2.936 ± 0.065 | 4.894 ± 0.11
293.15 K, 100000 kPa, Falling or rolling sphere viscometry | 1.26 ± 0.028 | 1.741 ± 0.038 | 2.197 ± 0.048 | 2.902 ± 0.064 | 3.814 ± 0.085 | 6.553 ± 0.14
313.15 K, 100 kPa, Capillary tube (Ostwald / Ubbelohde) method | 0.386 ± 0.008 | 0.441 ± 0.009 | 0.526 ± 0.011 | 0.617 ± 0.013 | 0.735 ± 0.015 | 0.983 ± 0.021
313.15 K, 20000 kPa, Falling or rolling sphere viscometry | 0.476 ± 0.01 | 0.598 ± 0.013 | 0.701 ± 0.015 | 0.821 ± 0.018 | 0.979 ± 0.022 | 1.356 ± 0.03
313.15 K, 40000 kPa, Falling or rolling sphere viscometry | 0.587 ± 0.013 | 0.748 ± 0.016 | 0.894 ± 0.02 | 1.059 ± 0.023 | 1.292 ± 0.029 | 1.869 ± 0.042
313.15 K, 60000 kPa, Falling or rolling sphere viscometry | 0.712 ± 0.016 | 0.917 ± 0.02 | 1.118 ± 0.024 | 1.339 ± 0.029 | 1.668 ± 0.037 | 2.51 ± 0.056
313.15 K, 80000 kPa, Falling or rolling sphere viscometry | 0.853 ± 0.019 | 1.104 ± 0.024 | 1.376 ± 0.03 | 1.669 ± 0.037 | 2.119 ± 0.047 | 3.31 ± 0.073
313.15 K, 100000 kPa, Falling or rolling sphere viscometry | 1.014 ± 0.022 | 1.312 ± 0.029 | 1.677 ± 0.037 | 2.058 ± 0.045 | 2.663 ± 0.059 | 4.307 ± 0.096
333.15 K, 100 kPa, Capillary tube (Ostwald / Ubbelohde) method | 0.311 ± 0.007 | 0.356 ± 0.008 | 0.416 ± 0.009 | 0.486 ± 0.01 | 0.574 ± 0.012 | 0.739 ± 0.016
333.15 K, 20000 kPa, Falling or rolling sphere viscometry | 0.393 ± 0.009 | 0.488 ± 0.011 | 0.56 ± 0.012 | 0.644 ± 0.014 | 0.754 ± 0.017 | 1.032 ± 0.023
333.15 K, 40000 kPa, Falling or rolling sphere viscometry | 0.491 ± 0.011 | 0.604 ± 0.013 | 0.707 ± 0.015 | 0.826 ± 0.018 | 0.982 ± 0.022 | 1.41 ± 0.031
333.15 K, 60000 kPa, Falling or rolling sphere viscometry | 0.595 ± 0.013 | 0.735 ± 0.016 | 0.875 ± 0.019 | 1.035 ± 0.023 | 1.252 ± 0.027 | 1.87 ± 0.041
333.15 K, 80000 kPa, Falling or rolling sphere viscometry | 0.706 ± 0.015 | 0.884 ± 0.019 | 1.067 ± 0.023 | 1.277 ± 0.028 | 1.574 ± 0.034 | 2.427 ± 0.053
333.15 K, 100000 kPa, Falling or rolling sphere viscometry | 0.822 ± 0.018 | 1.051 ± 0.023 | 1.283 ± 0.028 | 1.557 ± 0.034 | 1.958 ± 0.043 | 3.105 ± 0.068
353.15 K, 100 kPa, Capillary tube (Ostwald / Ubbelohde) method | – | – | – | – | 0.465 ± 0.01 | 0.576 ± 0.012
353.15 K, 20000 kPa, Falling or rolling sphere viscometry | 0.34 ± 0.007 | 0.399 ± 0.009 | 0.442 ± 0.01 | 0.499 ± 0.011 | 0.591 ± 0.013 | 0.799 ± 0.018
353.15 K, 40000 kPa, Falling or rolling sphere viscometry | 0.428 ± 0.009 | 0.508 ± 0.011 | 0.578 ± 0.013 | 0.66 ± 0.015 | 0.773 ± 0.017 | 1.084 ± 0.024
353.15 K, 60000 kPa, Falling or rolling sphere viscometry | 0.517 ± 0.011 | 0.622 ± 0.014 | 0.724 ± 0.016 | 0.836 ± 0.018 | 0.997 ± 0.022 | 1.418 ± 0.031
353.15 K, 80000 kPa, Falling or rolling sphere viscometry | 0.61 ± 0.013 | 0.739 ± 0.016 | 0.879 ± 0.019 | 1.025 ± 0.022 | 1.245 ± 0.027 | 1.808 ± 0.04
353.15 K, 100000 kPa, Falling or rolling sphere viscometry | 0.706 ± 0.015 | 0.855 ± 0.019 | 1.037 ± 0.022 | 1.223 ± 0.027 | 1.504 ± 0.033 | 2.265 ± 0.049
